Measurements reported in patent publication US9034882B2, “Inhibitors of human immunodeficiency virus replication” (priority 2012, dated 2015).
Where two headings read alike, the source gives them in different places.

System: recombinant NL-Rluc virus
Test: Inhibition of HIV replication (NL-RLuc luciferase reporter virus in MT-2 cells)
Type: cell-based
Conditions: Human immunodeficiency virus 1, MT2, 120 h

| SMILES | EC50 (read-out: Activity) | EC50 (read-out: EC50 μM) |
| --- | --- | --- |
| Cc1nc2cc(-c3ccc4c(c3)CCCC4)nn2c(N2CCC(C)CC2)c1[C@H](OC(C)(C)C)C(=O)O [Example 34, (S)-2-(tert-Butoxy)-2-(5-methyl-7-(4-methylpiperidin-1-yl)-2-(5,6,7,8-tetrahydronaphthalen-2-yl)pyrazolo[1,5-a]pyrimidin-6-yl)acetic acid] | 0.1 to 1 µM | – |
| Cc1nc2cc(-c3cccc(-c4ccccc4)c3)nn2c(N2CCC(C)(C)CC2)c1C(OC(C)(C)C)C(=O)O (stereo not drawn) [Example 35, 2-(2-([1,1′-Biphenyl]-3-yl)-7-(4,4-dimethylpiperidin-1-yl)-5-methylpyrazolo[1,5-a]pyrimidin-6-yl)-2-(tert-butoxy)acetic acid] | 0.1 to 1 µM | 0.13 µM |
| Cc1nc2c(-c3cccc(Cl)c3)cnn2c(N2CCC(C)(C)CC2)c1C(OC(C)(C)C)C(=O)O (stereo not drawn) [Example 36, 2-(tert-butoxy)-2-(3-(3-chlorophenyl)-7-(4,4-dimethylpiperidin-1-yl)-5-pyrazolo[1,5a]pyrimidin-6-yl)acetic acid] | 0.1 to 1 µM | – |
| Cc1nc2nc(-c3ccccc3)nn2c(N2CCC(C)(C)CC2)c1C(OC(C)(C)C)C(=O)O (stereo not drawn) [Example 37, 2-tert-Butoxy-2-(7-(4,4-dimethylpiperidin-1-yl)-5-methyl-2-phenyl-[1,2,4]triazolo[1,5-a]pyrimidin-6-yl)acetic acid] | 0.1 to 1 µM | 0.24 µM |
| Cc1nc2nc(-c3ccccc3)nn2c(N2CCC(C)CC2)c1C(OC(C)(C)C)C(=O)O (stereo not drawn) [Example 38, 2-tert-Butoxy-2-(5-methyl-7-(4-methylpiperidin-1-yl)-2-phenyl-[1,2,4]triazolo[1,5-a]pyrimidin-6-yl)acetic acid] | > 1 µM | – |
| Cc1nc2nc(-c3ccccc3)nn2c(N2CC[C@H]3CCCC[C@H]3C2)c1C(OC(C)(C)C)C(=O)O (stereo partly drawn) [Example 39, 2-(tert-Butoxy)-2-(5-methyl-7-((4aR,8aR)-octahydroisoquinolin-2(1H)-yl)-2-phenyl-[1,2,4]triazolo[1,5-a]pyrimidin-6-yl)acetic acid] | 0.1 to 1 µM | – |
| Cc1nc2nc(-c3ccccc3)nn2c(N2CC[C@H]3CCCC[C@@H]3C2)c1C(OC(C)(C)C)C(=O)O (stereo partly drawn) [Example 40, 2-(tert-Butoxy)-2-(5-methyl-7-((4aR,8aS)-octahydroisoquinolin-2(1H)-yl)-2-phenyl-[1,2,4]triazolo[1,5-a]pyrimidin-6-yl)acetic acid] | > 1 µM | – |
| Cc1nc2nc(-c3ccccc3)nn2c(N2CCCC(C)(C)C2)c1C(OC(C)(C)C)C(=O)O (stereo not drawn) [Example 41, 2-(tert-Butoxy)-2-(7-(3,3-dimethylpiperidin-1-yl)-5-methyl-2-phenyl-[1,2,4]triazolo[1,5-a]pyrimidin-6-yl)acetic acid] | < 0.1 µM | – |
| Cc1nc2nc(-c3cccc(-c4ccccc4)c3)nn2c(N2CCC(C)(C)CC2)c1[C@H](OC(C)(C)C)C(=O)O [Example 42, (S)-2-(2-([1,1′-Biphenyl]-3-yl)-7-(4,4-dimethylpiperidin-1-yl)-5-methyl-[1,2,4]triazolo[1,5-a]pyrimidin-6-yl)-2-(tert-butoxy)acetic acid] | < 0.1 µM | 0.05 µM |
| Cc1nc2cc(-c3cccc(-c4ccccc4)c3)nn2c(N2[C@@H]3CCC[C@H]2CC3)c1[C@H](OC(C)(C)C)C(=O)O [Example 43, (S)-2-(2-([1,1′-Biphenyl]-3-yl)-7-((1R,5S)-8-azabicyclo[3.2.1]octan-8-yl)-5-methylpyrazolo[1,5-a]pyrimidin-6-yl)-2-(tert-butoxy)acetic acid] | 0.1 to 1 µM | 0.78 µM |
| Cc1nc2cc(-c3cccc(-c4ccccc4)c3)nn2c(N2CCOCC2)c1[C@H](OC(C)(C)C)C(=O)O [Example 44, (S)-2-(2-([1,1′-Biphenyl]-3-yl)-5-methyl-7-morpholinopyrazolo[1,5-a]pyrimidin-6-yl)-2-(tert-butoxy)acetic acid] | 0.1 to 1 µM | – |
| Cc1nc2cc(-c3cccc(-c4ccccc4)c3)nn2c(N2[C@@H]3CC[C@H]2COC3)c1[C@H](OC(C)(C)C)C(=O)O [Example 45, (S)-2-(2-([1,1′-Biphenyl]-3-yl)-7-((1R,5S)-3-oxa-8-azabicyclo[3.2.1]octan-8-yl)-5-methylpyrazolo[1,5-a]pyrimidin-6-yl)-2-(tert-butoxy)acetic acid] | > 1 µM | 3.14 µM |
| Cc1nc2cc(-c3cccc(-c4ccccc4)c3)nn2c(N2CCS(=O)(=O)CC2)c1[C@H](OC(C)(C)C)C(=O)O [Example 46, (S)-2-(2-([1,1′-Biphenyl]-3-yl)-7-(1,1-dioxidothiomorpholino)-5-methylpyrazolo[1,5-a]pyrimidin-6-yl)-2-(tert-butoxy)acetic acid] | 0.1 to 1 µM | – |
| Cc1nc2cc(-c3cccc(-c4ccccc4)c3)nn2c(N2CCC3(CC2)CC3)c1[C@H](OC(C)(C)C)C(=O)O [Example 47, (S)-2-(2-([1,1′-Biphenyl]-3-yl)-5-methyl-7-(6-azaspiro[2.5]octan-6-yl)pyrazolo[1,5-a]pyrimidin-6-yl)-2-(tert-butoxy)acetic acid] | 0.1 to 1 µM | – |
| Cc1nc2cc(-c3cccc(-c4ccccc4)c3)nn2c(N2C3CCCC2COC3)c1[C@H](OC(C)(C)C)C(=O)O [Example 48, (2S)-2-(2-([1,1′-Biphenyl]-3-yl)-7-(3-oxa-9-azabicyclo[3.3.1]nonan-9-yl)-5-methylpyrazolo[1,5-a]pyrimidin-6-yl)-2-(tert-butoxy)acetic acid] | > 1 µM | – |
| Cc1nc2cc(-c3cccc(-c4ccccc4)c3)nn2c(N2CCOC(C)(C)C2)c1[C@H](OC(C)(C)C)C(=O)O [Example 49, (S)-2-(2-([1,1′-Biphenyl]-3-yl)-7-(2,2-dimethylmorpholino)-5-methylpyrazolo[1,5-a]pyrimidin-6-yl)-2-(tert-butoxy)acetic acid] | 0.1 to 1 µM | – |
| Cc1nc2cc(-c3cccc(-c4ccccc4)c3)nn2c(N2C3CCC2CN(C)C3)c1[C@H](OC(C)(C)C)C(=O)O [Example 50, (S)-2-(2-([1,1′-Biphenyl]-3-yl)-5-methyl-7-((1R,5S)-3-methyl-3,8-diazabicyclo[3.2.4]octan-8-yl)pyrazolo[1,5-a]pyrimidin-6-yl)-2-(tert-butoxy)acetic acid] | > 1 µM | 3.23 µM |
| Cc1nc2cc(-c3cccc(-c4ccccc4F)c3)nn2c(N2CCC3(CC2)CC3)c1[C@H](OC(C)(C)C)C(=O)O [Example 51, (S)-2-(tert-Butoxy)-2-(2-(2′-fluoro-[1,1′-biphenyl]-3-yl)-5-methyl-7-(6-azaspiro[2.5]octan-6-yl)pyrazolo[1,5-a]pyrimidin-6-yl)acetic acid] | 0.1 to 1 µM | – |
| Cc1nc2cc(-c3cccc(-c4ccccc4F)c3)nn2c(N2CCC(C)(C)CC2)c1[C@H](OC(C)(C)C)C(=O)O [Example 52, (S)-2-(tert-Butoxy)-2-(7-(4,4-dimethylpiperidin-1-yl)-2-(2′-fluoro-[1,1′-biphenyl]-3-yl)-5-methylpyrazolo[1,5-a]pyrimidin-6-yl)acetic acid] | < 0.1 µM | 0.05 µM |
| Cc1nc2cc(-c3cccc(-c4cccc(F)c4)c3)nn2c(N2CCC3(CC2)CC3)c1[C@H](OC(C)(C)C)C(=O)O [Example 53, (S)-2-(tert-Butoxy)-2-(2-(3′-fluoro-[1,1′-biphenyl]-3-yl)-5-methyl-7-(6-azaspiro[2.5]octan-6-yl)pyrazolo[1,5-a]pyrimidin-6-yl)acetic acid] | 0.1 to 1 µM | – |
| Cc1nc2cc(-c3cccc(-c4ccc(F)cc4)c3)nn2c(N2CCC3(CC2)CC3)c1[C@H](OC(C)(C)C)C(=O)O [Example 54, (S)-2-(tert-Butoxy)-2-(2-(4′-fluoro-[1,1′-biphenyl]-3-yl)-5-methyl-7-(6-azaspiro[2.5]octan-6-yl)pyrazolo[1,5-a]pyrimidin-6-yl)acetic acid] | 0.1 to 1 µM | – |
| Cc1nc2cc(-c3cccc(-c4cccc(F)c4)c3)nn2c(N2CCC(C)(C)CC2)c1[C@H](OC(C)(C)C)C(=O)O [Example 55, (S)-2-(tert-Butoxy)-2-(7-(4,4-dimethylpiperidin-1-yl)-2-(3′-fluoro-[1,1′-biphenyl]-3-yl)-5-methylpyrazolo[1,5-a]pyrimidin-6-yl)acetic acid] | 0.1 to 1 µM | – |
| Cc1nc2cc(-c3cccc(-c4ccc(F)cc4)c3)nn2c(N2CCC(C)(C)CC2)c1[C@H](OC(C)(C)C)C(=O)O [Example 56, (S)-2-(tert-Butoxy)-2-(7-(4,4-dimethylpiperidin-1-yl)-2-(4′-fluoro-[1,1′-biphenyl]-3-yl)-5-methylpyrazolo[1,5-a]pyrimidin-6-yl)acetic acid] | 0.1 to 1 µM | – |
| Cc1nc2cc(-c3cccc(-c4ccc5cnn(C)c5c4)c3)nn2c(N2CCC(C)(C)CC2)c1[C@H](OC(C)(C)C)C(=O)O [Example 57, (S)-2-(tert-Butoxy)-2-(7-(4,4-dimethylpiperidin-1-yl)-5-methyl-2-(3-(1-methyl-1H-indazol-6-yl)phenyl)pyrazolo[1,5-a]pyrimidin-6-yl)acetic acid] | < 0.1 µM | – |
| Cc1ccccc1-c1cccc(-c2cc3nc(C)c([C@H](OC(C)(C)C)C(=O)O)c(N4CCC(C)(C)CC4)n3n2)c1 [Example 58, (S)-2-(tert-Butoxy)-2-(7-(4,4-dimethylpiperidin-1-yl)-5-methyl-2-(2′-methyl-[1,1′-biphenyl]-3-yl)pyrazolo[1,5-a]pyrimidin-6-yl)acetic acid] | < 0.1 µM | – |
| COc1ccccc1-c1cccc(-c2cc3nc(C)c([C@H](OC(C)(C)C)C(=O)O)c(N4CCC(C)(C)CC4)n3n2)c1 [Example 59, (S)-2-(tert-Butoxy)-2-(7-(4,4-dimethylpiperidin-1-yl)-2-(2′-methoxy-[1,1′-biphenyl]-3-yl)-5-methylpyrazolo[1,5-a]pyrimidin-6-yl)acetic acid] | < 0.1 µM | 0.015 µM |
| Cc1nc2cc(-c3cccc(-c4ccc5cnn(C)c5c4)c3)nn2c(N2CCC3(CC2)CC3)c1[C@H](OC(C)(C)C)C(=O)O [Example 60, (S)-2-(tert-Butoxy)-2-(5-methyl-2-(3-(1-methyl-1H-indazol-6-yl)phenyl)-7-(6-azaspiro[2.5]octan-6-yl)pyrazolo[1,5-a]pyrimidin-6-yl)acetic acid] | < 0.1 µM | – |
| Cc1nc2cc(-c3cccc(-c4ccccc4)c3)nn2c(N2CCC3(C)CC3C2)c1[C@H](OC(C)(C)C)C(=O)O (stereo partly drawn) [Example 61, (2S)-2-(2-([1,1′-Biphenyl]-3-yl)-5-methyl-7-(6-methyl-3-azabicyclo[4.1.0]heptan-3-yl)pyrazolo[1,5-a]pyrimidin-6-yl)-2-(tert-butoxy)acetic acid] | 0.1 to 1 µM | – |
